Data on 4 substances can be found in patent US20060205037A1, “Modified transferrin fusion proteins” (priority 2003, published 2006).

The conditions of series [1]: blood; cited from earlier work.
Series [2] relates to db/db mice. Kind of series: food intake and post-prandial blood glucose, db/db mice. It counts as in vivo. How it is done: (§1) Mice (N=5 per group) were conditioned to eat once daily (9-10 am) for five days. […] Food intake and blood glucose levels were measured 2, 4, 7 and 24 h after peptide administration.
Series [3] is described as follows: c-Fos activation in brain after IP injection. The format is in vivo, mice. The following applies: IP 1 nmol/kg. How it is done: (§2) Briefly, mice that received IP injections were anesthetized with isoflurane 2 h later and the mice that received ICV injections were anesthetized 1.5 and 24 h later. Intracardiac perfusion with ice-cold 4% paraformaldehyde was immediately carried out. Brains were removed immediately at the end of perfusion, kept in ice-cold 4% parafor maldehyde for 72 h, and then transferred to a solution containing 4% paraformaldehyde and 25% sucrose until they floated. Each brain as cut into 30 μm sections using a sliding microtome with a freezing stage. Brain sections from each animal were placed in a 12-well plate and then processed for immunocytochemistry. The free-floating sections from each animal were first incubated in 0.3% H2O2 for 30 min and then washed 3 times in PBS for 5 min/rinse. Thereafter the sections were incubated in blocking serum (normal goat serum/PBS/0.1% Triton) for 45 min at room temperature. The sections were stained for c-Fos with an antibody directed against the amino acid residues 4-17 in rabbit anti-human c-Fos (Calbiochem, 1:30,000) for 48 h at 4° C. The sections were then washed 6 times with PBS/0.1% Triton before incubation for 1.5 h at room temperature with biotinylated goat anti-rabbit IgG (1:600) in blocking serum (Vector Laboratories). Thereafter the sections were visualized with DAB (Vectastain ABC kit) and developed until the color reached the required intensity in the control sections. The reaction was stopped by immersion of the slides in distilled water. After the staining was completed, sections were mounted on superfrost slides (Fisher Scientific), air-dried for 1-2 days and coverslipped with Permount. Sections were examined using light microscopy to identify c-Fos-positive cells.

The test system of series [4] is c-Fos. Kind of series: c-Fos activation in brain after IP injection. The format is in vivo, mice. How it is done:
as §2

The nature of series [5]: GLP-1-Tf in serum of cynomolgus monkeys (Example 4). The format is in vivo, cynomolgus monkeys (Macaca fascicularis). Conditions: cAMP in CHO/GLP-1R.
Another series has as its system RIN 1046-38 cells. Kind of series: insulin secretion in RIN 1046-38 cells. It counts as cell-based. Conditions: rat insulinoma cells, concentration-dependent. How it is done: Rat insulinoma cell line, RIN1046-38 cells, was obtained from Dr. Samuel A. Clark and cultured with 5% CO2 at 37° C. in M199 medium (Cellgro) as previously described (Wang et al., 2001, Endocrinology, 142: 1820-1827). […] Exendin-9-39 (1 μmol/l: Bachem), an inhibitor of the GLP-1R. was also added overnight to one set of experiments. The supernatant was then collected and saved at −80° C. for determination of insulin content by ELISA (Crystal Chems). Cells were lysed and the protein content was quantified using the Bradford method.

Series [6] concerns non-diabetic mice. Nature of the series: food intake and post-prandial blood glucose, non-diabetic mice. It counts as in vivo. The method, then:
as §1

For series [7], the system named is non-diabetic mice. Nature of the series: blood glucose after SC administration, ad libitum fed non-diabetic mice. It counts as in vivo.
The test system of series [8] is diabetic db/db mice.
Description: Male diabetic db/db mice (C57BLKS/J-Lepr^db/Lepr^db) lacking a functioning leptin receptor and their non-diabetic heterozygous littermates were purchased at 4 weeks of age from Jackson Laboratories (Bar Harbor). They were housed, two per cage and fed ad libitum for at least five days before any testing. The same mice were caged together for the duration of the studies.
Plasma insulin levels were measured at 1 and 4 hours.
The test system of series [9] is c-Fos. Kind of series: c-Fos activation in brain after ICV injection. It counts as in vivo, mice. How it is done: Briefly, mice that received IP injections were anesthetized with isoflurane 2 h later and the mice that received ICV injections were anesthetized 1.5 and 24 h later. Intracardiac perfusion with ice-cold 4% paraformaldehyde was immediately carried out. Brains were removed immediately at the end of perfusion, kept in ice-cold 4% parafor maldehyde for 72 h, and then transferred to a solution containing 4% paraformaldehyde and 25% sucrose until they floated. Each brain as cut into 30 μm sections using a sliding microtome with a freezing stage. Brain sections from each animal were placed in a 12-well plate and then processed for immunocytochemistry. The free-floating sections from each animal were first incubated in 0.3% H2O2 for 30 min and then washed 3 times in PBS for 5 min/rinse. Thereafter the sections were incubated in blocking serum (normal goat serum/PBS/0.1% Triton) for 45 min at room temperature. The sections were stained for c-Fos with an antibody directed against the amino acid residues 4-17 in rabbit anti-human c-Fos (Calbiochem, 1:30,000) for 48 h at 4° C. […]
In another series of experiments, Tf and GLP-1-Tf were administered intracerebrovenitricular (ICV) and c-Fos activation assessed 1.5 and 24 hours later.

Series [10] relates to db/db mice. Nature of the series: β-cell proliferation (BrdU) and β-cell mass in db/db mice. It counts as in vivo. The following applies: for increase in total β-cell mass: 10 mg/kg. How it is done: db/db mice, 6 per time point, received one IP injection of Tf (10 mg/kg) or GLP-1-Tf (10 mg/kg) and were sacrificed 1, 2 and 3 days later for measurement of β-cell proliferation and 3, 5, 8 and 10 days later for measurement of islet mass. Sixty mg/kg 5-bromo-2-deoxyuridine (BrdU, Sigma) was injected IP 6 hours before sacrifice. BrdU is a thymidine analog that is incorporated during S-phase of cell mitosis. Pancreata were removed, fixed overnight in 4% buffered formalin, processed for embedding in paraffin and histological sections (4 μm) mounted on poly-1-lysine-coated glass slides. BrdU was detected with a BrdU antibody (Sigma, 1:500 and also confirmed with Zymed antibody, 1:250) and BrdU staining kit (Zymed Laboratories Inc). Five to six hundred islets from each condition were then visualized and the number of islets that contained BrdU+ cells as well as the percent BrdU+ nuclei per total number of islet cells was quantified. For insulin staining and determination of β-cell mass histological sections were treated with a guinea-pig insulin antibody (Linco). Antibody binding was visualized with 3,3-diaminobenzidine (DAB) and sections counterstained with hematoxylin (Vectastain ABC kit, Vector Laboratories, using goat anti-guinea pig IgG). The sections were examined using a video camera connected to a computer with imaging software. Sectioned tissue images were acquired through a 2.5× objective of a phase contrast light microscope (Carl Zeiss) and digitized by means of a Sony Power HAD digital camera (an average of 20-30 images per section). The total pancreatic area and β-cell positive area for every image were quantified using MetaMorph 4.6.3 software (Universal Imaging Inc., West Chester).

Series [11] has as its system non-diabetic mice. Kind of series: IPGTT in non-diabetic mice after IP administration. Conditions: IP 1 and 10 mg/kg. The format is in vivo. The method, then: Intraperitoneal (IP) glucose tolerance testing (IPGTT) (0.5 g/kg body weight) was carried out after an overnight fast in non-diabetic mice. Tf and GLP-1-Tf were administered IP 30 min before the glucose injection. Blood glucose levels (Glucometer Elite, Bayer) were measured at 0, and 30 and 60 min and plasma insulin levels at 0 and 30 min after the IPGTT.

A further series has as its system isolated rat islets. Kind of series: insulin secretion in isolated rat islets. The format is cell-based. The following applies: concentration-dependent. How it is done: Islets from Sprague-Dawley rats were isolated as we previously described, with some modification (Wang et al., 1997, J. Clin. Invest. 99: 2883-2889). Briefly, pancreata were digested by Collagenase Type XI (Sigma) and islets separated through a Ficoll-Paque gradient (Amersham Biosciences). The isolated islets were washed several times using Hanks Balanced Salts Solution (Biosource) containing 0.2% bovine serum albumin (BSA, Sigma), hand-picked and cultured overnight with 5% CO2 at 37° C. in M199 medium supplemented with 5 mM glucose. Rat islets were then treated similarly to (30-40 per well) to RIN cells as described above.

The test system of series [12] is diabetic db/db mice. Nature of the series: overnight fast and IPGTT in diabetic mice after SC administration. The format is in vivo. The method, then: A group of diabetic mice were given Tf or GLP-1-Tf via SC administration at 9 pm, fasted overnight and an IPGTT performed the next morning. The fasted Tf-treated animals had lower fasting blood glucose than ad libitum fed animals (238±39 versus 358±23 mg/dl; compare 0 time/fasted animals of FIG. 10c with 0 time/fed animals of FIG. 10a), and additionally, the animals given 1 or […] had lower fasting blood glucose (132±27 mg/dl) than those given Tf alone.

[13] abbreviates: 10 mg/kg, 2 h after administration.
[14] abbreviates: compared to hTf-treated animals.

With “glycosylated transferrin: glycosylated serum transferrin”, in series [1], the half life was 7 to 10 days.
Regarding exendin-4 [reference compound], in the series on db/db mice [2] (1 nmol/kg IP), the “food intake in the remaining 17 h” value is “caused a decrease in food intake” and the “time for which essentially all measurable food consumption was prevented” value amounted to 7 h. Besides, the “AP c-Fos response compared to GLP-1-Tf” value in [3] was “much more robust”. Further, the “brain areas with c-Fos activation” value in the series with c-Fos [4] (IP 1 nmol/kg) was “activated similar areas to GLP-1-Tf in all injected animals”.
Regarding “Carbohydrate deficient transferrin: transferrin form elevated in the blood of alcoholic individuals”, the half life in series [1] is 14 to 17 days.
For the substance “pREX0585: nL GLP-1 (7-37; A8G, K34A) (PEAPTD)2 mTf; mTf lacking N-glycosylation at sites 413 and 611”, the “activity of GLP-1-Tf in serum from the injected monkeys on CHO/GLP-1R” value in series [5] is given as “biologically active”. Moreover, the “post-prandial blood glucose levels” value in the series on db/db mice [2] (0.1, 1 and 10 mg/kg, compared to Tf treatment) is “lowered post-prandial blood glucose levels”; with non-diabetic mice [6] (0.1, 1 and 10 mg/kg, compared to Tf only) it was “lower”. Also, the “time for which food intake was decreased by approximately half” value with db/db mice [2] (IP 1 and 10 mg/kg) was 2 h; with non-diabetic mice [6] (IP 1 mg/kg), 2 h; in the series on non-diabetic mice [6] (IP 10 mg/kg), “up to 7 h”. Moreover, the insulin secretion entry with RIN 1046-38 cells is given as “stimulate insulin secretion”; in the series on non-diabetic mice [11] (30 min before glucose) it was “enhanced insulin secretion”; in the series on isolated rat islets it was “stimulate insulin secretion”. In addition, in the series on non-diabetic mice [7], the “time for blood glucose to rise to pre-administration levels” value is no more than 24 h. Moreover, the “blood glucose concentration and insulin secretion” value in the series with non-diabetic mice [7] (ad libitum fed) was “dose-dependently reduced blood glucose concentration and increased insulin secretion”. The “persistence of low blood glucose” value in the series with non-diabetic mice [7] (higher dose 10 mg/kg) is reported as “up to 36 hours”. In the series with non-diabetic mice [7] (within 3 hours of administration), this substance returned a blood glucose level of 70 mg/dL. Also, the “plasma insulin levels at 1 hour” value with diabetic db/db mice [8] (SC 0.1 mg/kg) was “increased plasma insulin levels”. The “beginning of blood glucose effect after injection” value in the series with diabetic db/db mice [8] (SC 1 and 10 mg/kg) turned out to be 1 h. Moreover, the “duration of increased plasma insulin levels” value with diabetic db/db mice [8] (SC 1 and 10 mg/kg) is no less than 4 h. Also, in the series on diabetic db/db mice [8] (SC both 1 and 10 mg/kg, ad libitum, from 358±23), the blood glucose worked out at 115 ± 18 mg/dL. For the same substance, the “duration of effect on blood glucose” value in the series on diabetic db/db mice [8] (SC highest dose) is reported as “at least 12 hours”. Further, in the series with diabetic db/db mice [8] (SC low dose 0.1 mg/kg), the “duration of blood glucose lowering” value stood at 4 h. The “c-Fos activation ninety minutes after ICV injection” value in the series on c-Fos [9] (1.5 h) is “c-Fos activation had occurred in PVH and NTS but not AP”. The “c-Fos activation 24 h after ICV injection” value in the series on c-Fos [9] (24 h) is reported as “not present in any of the three brain regions”. The “number of BrdU+ nuclei in islets 24 hours after injection” value in the series with db/db mice [10] (10 mg/kg IP, compared to Tf) is “clear increase in the number of BrdU+ nuclei”. Further, the “islets with 1 or more BRDU+ nuclei” value in the series on db/db mice [10] (10 mg/kg IP, third day) is reported as “all islets”. For the same substance, the “increase in BRDU+ nuclei” value in the series on db/db mice [10] (10 mg/kg IP, third day, vs Tf, p<0.01) is 4.7 fold. The “increase in total β-cell mass” value with db/db mice [10] (3 days, compared to Tf) was 1.7 fold; in the series on db/db mice [10] (5 days, compared to Tf), 2.2 fold; in the series with db/db mice [10] (8 days, compared to Tf), 4.1 fold; in the series on db/db mice [10] (10 days, compared to Tf), 4.3 fold. In the series with non-diabetic mice [11] (IPGTT), the peak blood glucose entry is reported as “decreased”. Besides, the “c-Fos activation, AP” value with c-Fos [4] (1 mg/kg) was 0/6. Also, in the series with c-Fos [4] (1 mg/kg), the “c-Fos activation, NTS” value is on record as 6/6. Besides, the “c-Fos activation, PVH” value in the series with c-Fos [4] (1 mg/kg) was 6/6. Moreover, the “c-Fos activation, area postrema (AP)” value with c-Fos [4] (setting [13]) was 4/6. Besides, the “c-Fos activation, nuclei of the solitary tract (NTS)” value in the series on c-Fos [4] (setting [13]) is recorded as 6/6. In the series with c-Fos [4] (setting [13]), the “c-Fos activation, paraventricular nuclei of the hypothalamus (PVH)” value is recorded as 6/6. In the series on diabetic db/db mice [12] (SC at 9 pm, fasted overnight, GLP-1-Tf 1 or 10 mg), this substance yielded a fasting blood glucose of 132 ± 27 mg/dL. Also, the “glucose levels after the IPGTT” value in the series with diabetic db/db mice [12] (setting [14]) is “lower glucose levels”. For the same substance, in the series with diabetic db/db mice [12] (setting [14]), the “plasma insulin levels after the IPGTT” value was “higher plasma insulin levels”.
